Tests used:
[1] = target: T1, human serum albumin (HSA) (Homo sapiens, UniProt P02768); experiment: intrinsic fluorescence quenching titration; format: binding; conditions: 298 K; 0.1 M Tris-HCl pH 7.3, 0.1 M NaCl; 10 μM protein; excitation 282 nm; n = 1.15; double-log
T1 construct: gene ALB; mature protein, 585 residues, 17 disulfide bonds, about 67 kD
Source text: intrinsic fluorescence quenching titration on human serum albumin (HSA)

[2] = target: T2, human transferrin (TRF) (Homo sapiens, UniProt P02787); experiment: intrinsic fluorescence quenching titration; format: binding; conditions: 298 K; 0.1 M Tris-HCl pH 7.3, 0.1 M NaCl; 10 μM protein; excitation 282 nm; n = 1.09; double-log
T2 construct: gene TF; mature glycoprotein, 679 residues, 19 disulfide bonds, about 77 kD
T2 sequence (P02787 20-698): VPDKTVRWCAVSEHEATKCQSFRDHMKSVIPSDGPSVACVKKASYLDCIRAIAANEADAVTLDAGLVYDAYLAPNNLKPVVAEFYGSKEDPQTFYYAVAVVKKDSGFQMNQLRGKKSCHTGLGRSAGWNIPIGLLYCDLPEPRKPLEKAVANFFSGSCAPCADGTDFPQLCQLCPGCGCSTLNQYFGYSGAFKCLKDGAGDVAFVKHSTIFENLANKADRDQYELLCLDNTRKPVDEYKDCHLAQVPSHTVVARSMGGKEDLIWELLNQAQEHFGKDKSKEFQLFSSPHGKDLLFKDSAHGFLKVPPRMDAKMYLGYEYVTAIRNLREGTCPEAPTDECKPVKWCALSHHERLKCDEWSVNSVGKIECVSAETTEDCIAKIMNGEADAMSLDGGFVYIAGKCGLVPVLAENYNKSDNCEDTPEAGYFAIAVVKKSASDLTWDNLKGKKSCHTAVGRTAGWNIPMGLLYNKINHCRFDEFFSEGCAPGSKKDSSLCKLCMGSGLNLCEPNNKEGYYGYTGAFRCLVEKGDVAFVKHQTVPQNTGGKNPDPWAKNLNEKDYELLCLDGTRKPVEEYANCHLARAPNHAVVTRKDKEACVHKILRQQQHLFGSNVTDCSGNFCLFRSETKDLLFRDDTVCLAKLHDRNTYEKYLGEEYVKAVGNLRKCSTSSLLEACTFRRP
Source text: intrinsic fluorescence quenching titration on human transferrin (TRF)

T1 sequence (P02768 25-609): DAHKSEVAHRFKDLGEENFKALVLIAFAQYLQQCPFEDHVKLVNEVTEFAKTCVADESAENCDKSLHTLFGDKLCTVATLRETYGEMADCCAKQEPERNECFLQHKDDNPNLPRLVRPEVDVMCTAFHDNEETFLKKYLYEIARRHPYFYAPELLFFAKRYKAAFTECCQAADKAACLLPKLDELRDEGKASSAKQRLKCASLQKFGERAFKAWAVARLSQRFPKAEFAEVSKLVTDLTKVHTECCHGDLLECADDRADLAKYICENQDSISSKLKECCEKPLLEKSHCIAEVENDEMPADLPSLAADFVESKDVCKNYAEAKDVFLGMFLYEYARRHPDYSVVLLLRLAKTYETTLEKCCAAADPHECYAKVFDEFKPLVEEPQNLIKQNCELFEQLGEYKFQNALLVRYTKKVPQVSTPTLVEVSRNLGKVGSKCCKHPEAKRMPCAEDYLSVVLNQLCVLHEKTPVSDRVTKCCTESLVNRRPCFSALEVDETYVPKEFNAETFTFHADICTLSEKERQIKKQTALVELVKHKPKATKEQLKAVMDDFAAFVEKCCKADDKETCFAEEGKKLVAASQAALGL

COc1c(O)cc2oc3cc(O)c(CC=C(C)C)c(O)c3c(=O)c2c1CC=C(C)C [α-mangostin, 1,3,6-trihydroxy-7-methoxy-2,8-bis(3-methyl-2-butenyl)-9H-xanthen-9-one]
K [1]: 648320 L/mol
K [2]: 146520 L/mol
